Assay results taken from patent US12668610B2, “Compounds for drug delivery across blood-brain barrier” (University of Houston System, priority 2020, dated 2026).
Numbered stars: 1 amine (or outer) side, 2 acyl side, 3 side chain; on linkers, the order of the positions; unused ones are H or OH. Square brackets hold non-standard residues; d marks the D form. Peptide text beside a SMILES is read from it. N((CH2)3OiPr)Gly = CC(C)OCCCNCC(=O)O; X1 = CC(c1ccccc1)N(CC(=O)[*:2])[*:1]; Nleu = CC(C)CNCC(=O)O; Nlys = NCCCCNCC(=O)O; Nme = COCCNCC(=O)O

Experiments:
transferrin receptor = target: T1, transferrin receptor (Homo sapiens, UniProt P02786); test: In vitro pull-down assay with compound-conjugated beads and western blot; type: binding; settings: lysates of transferrin receptor positive or negative HeLa cells, compound-conjugated beads, 4° C. overnight, western blot anti-hTfR
T1 construct: Cell lysates from HeLa cells with transferrin receptor expression or transferrin receptor knockdown were extracted using RIPA buffer; endogenous in cells; host or cells: HeLa (ATCC)
T1 sequence (P02786 whole entry): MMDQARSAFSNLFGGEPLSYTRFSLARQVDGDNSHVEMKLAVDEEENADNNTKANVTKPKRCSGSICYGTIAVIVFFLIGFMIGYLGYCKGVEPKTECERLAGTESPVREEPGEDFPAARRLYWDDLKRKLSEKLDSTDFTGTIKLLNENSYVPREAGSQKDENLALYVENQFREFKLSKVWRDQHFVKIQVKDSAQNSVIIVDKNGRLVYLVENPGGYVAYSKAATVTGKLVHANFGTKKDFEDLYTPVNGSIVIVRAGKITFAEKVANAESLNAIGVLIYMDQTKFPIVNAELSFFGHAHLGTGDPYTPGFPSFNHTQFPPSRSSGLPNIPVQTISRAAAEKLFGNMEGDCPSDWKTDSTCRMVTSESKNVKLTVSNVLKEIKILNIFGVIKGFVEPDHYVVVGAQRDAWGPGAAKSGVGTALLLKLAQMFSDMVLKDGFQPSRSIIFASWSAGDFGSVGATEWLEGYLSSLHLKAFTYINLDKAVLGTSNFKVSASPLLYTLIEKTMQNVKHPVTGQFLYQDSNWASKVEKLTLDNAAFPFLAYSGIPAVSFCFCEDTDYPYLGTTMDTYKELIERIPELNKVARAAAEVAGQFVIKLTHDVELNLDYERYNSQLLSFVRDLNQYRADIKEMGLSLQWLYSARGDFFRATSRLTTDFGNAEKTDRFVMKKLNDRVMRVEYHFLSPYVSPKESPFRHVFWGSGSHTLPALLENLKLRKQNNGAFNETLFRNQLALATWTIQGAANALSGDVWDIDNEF
Procedure: The binding of three exemplary compounds to the transferrin receptor was confirmed in a pull-down assay. Cell lysates from transferrin receptor positive or negative HeLa cells were extracted using RIPA buffer, and subsequently incubated with TRBP3, TRBP5, or TRBP6 conjugated beads at 4° C. overnight. The beads were then washed with RIPA buffer for 3 times, and the binding proteins were eluted with 1% SDS. The yielded lysates were then applied onto 10% SDS-PAGE gel and subjected to western blotting analysis with antibody against transferrin receptor.
Cell lysates from HeLa cells with transferrin receptor expression or transferrin receptor knockdown were extracted using RIPA buffer (Alfa Aesar) supplemented with protease inhibitors (Roche), and subsequently incubated with TRBP6, TRBP3, and TRBP5 conjugated beads at 4° C. overnight. The beads were then washed with RIPA buffer for 3 times, and the binding proteins were eluted with 1% SDS at 95° C. for 5 mins. The yielded lysates were then mixed with 4× Laemmli Sample Buffer (loading buffer) (Bio-Rad). […]
Cells were lysed in RIPA buffer (1% NP-40, 0.5% sodium deoxycholate, 0.1% SDS in PBS). […] Protein concentration was determined by Bio-Rad DC protein assay (Bio-Rad). […] Signals of targeted proteins were detected by the Immun-Star HRP peroxide Luminol/Enhancer (Bio-Rad) and recorded on ChemiDoc Touch Imaging System (Bio-Rad). […]

[1] = tested on: transferrin receptor positive HeLa cells; test: Validation of on-bead two-color binding with resynthesized compound on TentaGel beads; type: cell-based, human; settings: 1.0 hour at room temperature, fluorescence microscope
Procedure: The on-bead two-color combinatorial cell-screening was validated by resynthesizing the compounds on tentagel beads and incubating them with transferrin receptor positive HeLa cells and transferrin receptor negative Hela cells separately as well as a mixture of these cells. The beads specifically bound with the transferrin receptor positive HeLa cells. Results are shown in FIG. 3, with the cells shown on the left column and the beads containing TRBP6 after incubation with the cells shown in the right column.
Nearly 50,000 peptoid library beads were washed two times in DMEM medium containing 10% FBS (media) and then incubated in 1.0 ml (DMEM+10% FBS) for 1.0 hour in a polypropylene tube. Transferrin receptor positive HeLa cells and transferrin receptor negative HeLa cells were removed from culture plates with GIBCO enzyme free cell dissociation buffer 2.0 ml per plate for 20 minutes at 37° C. Cells were washed and suspended in DMEM+10% FBS media. Cells were counted and distributed in 1.5 ml microcentrifuge tubes with 1.0×10^6 cells in 1.0 ml of media. Then the cell labeling procedure was conducted as follows: 1.0 μl each of Qtracker reagent A and B were mixed in a 1.5 ml microcentrifuged tubes and incubated for 5.0 minutes at room temperature. […] Labeled cells were visualized with long-pass filter of BX-51 fluorescence microscope (Olympus, PA) with a color camera. […]

[2] = In vivo biodistribution study of Cy5.5-labeled peptoids in CD-1 mice (IVIS imaging)
Procedure: The activity of these compounds to deliver Cy5.5 fluorescent dye into the brains of mice was investigated. […] The Cy5.5 labeled peptoids or Cy5.5-Ang peptide were injected intravenously to CD-1 mice (25 nmol/mouse, n=4 per compound) and imaged using IVIS imager. The mice were sacrificed at 30 minutes, the heart was perfused with 10 mL of PBS, blood and organs were collected for ex vivo imaging.
Biodistribution of Cy5.5-labeled peptoids and control Cy5.5-Ang was performed on healthy female CD-1 mice (6-8 weeks old, n=4 per group). Fluorescently labeled peptoids and Cy5.5-Ang were prepared in 100 μl saline (25 nmol of Cy5.5-TRBP in 100 μl saline per mouse) were injected intravenously via tail vein into mice. The whole body imaging of fluorescence signal was measured at 5, 15 and 30 min using the IVIS Spectrum in vivo imaging system (PerkinElmer). At 30 min, mice were euthanized and brain was perfused with 10 mL of 10% heparinized PBS at […] flow rate via left ventricle of mice. A small incision to the right atrium was made using iris scissors before perfusion. After brain perfusion, the vital organs (brain, heart, lung, liver, spleen also blood and plasma) were collected for ex vivo imaging. The fluorescence intensity was measured at wavelength with an excitation of 660 nm and maximum emission at 710 nm. The organ region of interest (ROI) was measured and analyzed using Living image software. Data of the experiments were expressed as mean±SD and analyzed by One-way ANOVA with Dunnett's multiple comparison test. The statistical analysis was done in Graphpad Prism (Graphpad Inc., version 7.04), the results were considered statistically significant if p<0.05.

[3] = Solubility in water by titration; type: physicochemical; settings: deionised water; DI water
Procedure: Solubility of TRBP-6 peptoid was determined by titration. Briefly, a precise amount (5 mg) of TRBP-6 was measured in a transparent 1.5 ml Eppendorf tube. DI water was added dropwise (˜5 μl/drop) into the tube until the solids were completely dissolved and the solution was clear. Solubility was calculated as the ratio of quantity of peptoid and the total volume of DI water. […] The solubility of TRBP6 in water is shown below.

[4] = Stability in PBS pH 7.4 (HPLC); type: physicochemical; settings: 37° C., 350 μg/ml
Procedure: (§1) HPLC Analysis. RP-HPLC was conducted on an LC-20A liquid chromatographic system (Shimadzu, Japan). In detail, the HPLC system consisted of a Shimadzu LC-20AD solvent delivery pump, a SIL-20A auto-sampler, and a Shimadzu SPD-M20A UV/Vis detector. The TRBP-6 peptoid was analyzed using a Phenomenex® HPLC C18 column (250×4.6 mm, 5 μm) at room temperature. The mobile phase was composed of solvent A (0.1% TFA in water) and solvent B (0.1% TFA in acetonitrile, TFA: trifluoroacetic acid). An aliquot of 10 μl of TRBP-6 peptoid solution (350 μg/ml in ACN:H2O, 1:1) was injected into HPLC system. An isocratic method with flow rate of 1 ml/min was applied in 30% B for 15 min for TRBP-6. The detection wavelength was set to 220 nm. The data was acquired and processed with LabSolutions version 5.92. HPLC chromatograms for TRBP-6 are shown in FIG. 10, namely (A) PDA Chromatogram, and (B) PDA Spectrum. FIG. 10(A) is a RP-HPLC chromatogram of TRBP-6 (retention time tR=4.904 min) obtained by above HPLC method to illustrate the purity of the synthesized TRBP-6. FIG. 10(B) is a plot of UV absorbance spectrum of TRBP-6 obtained from injecting TRBP-6 into the HPLC column to show the wavelength of maximum UV absorbance of TRBP-6 (λmax=216 nm). Stability in PBS pH 7.4.
TRBP-6 peptoid was diluted with PBS pH 7.4 to 350 μg/ml. The solution was incubated in the water bath at 37° C. with gentle shaking. The aliquots (50 μl) were withdrawn from the TRBP-6 solution at different time intervals (0, 1, 3, 6, 9, 24 h). At each time point, 10 μl of solution was injected into HPLC for analysis. To examine the reproducibility, the experiments were carried out in triplicate.

[5] = Stability in human plasma (HPLC); type: in vitro ADME; settings: 37° C.
Procedure: as §1
TRBP-6 peptoid solution with a concentration of 5 mg/ml in PBS was diluted to 1.4 mg/ml by human plasma. After incubation at 37° C. in human plasma for 0, 1, 3, 6, 9 and 24 h, 50 μl of the mixture was quenched with 150 μl of cold acetonitrile and centrifuged at […]×20 min. The supernatant (100 μl) was detected by HPLC. The assay was performed in triplicates.

SMILES: COCCN(CC(=O)NC(CCCCN)C(=O)NC(CCSC)C(N)=O)C(=O)CN(CC(C)C)C(=O)CN(C(=O)CN(CCCCN)C(=O)CN(CCCOC(C)C)C(=O)CNCCCCN)C(C)c1ccccc1 (stereo not shown) [TRBP6] (H-[Nlys][N((CH2)3OiPr)Gly][Nlys][X1][Nleu][Nme]KM-NH2; configuration not given here)
- binding to the transferrin receptor in pull-down assay (transferrin receptor): confirmed
- binding of beads to transferrin receptor positive (red) vs negative (green) HeLa cells [1]: only showed binding with red cells but not with green cells
- efficacy of brain delivery compared with other compounds including Angiopep-2 (Ang) peptide ([2]; 25 nmol/mouse intravenously): much higher than other compounds
- delivery of Cy5.5 into the brain ([2]; 25 nmol/mouse intravenously, imaging 5, 15, 30 min and ex vivo after perfusion): effectively delivered Cy5.5 into the brain
- efficiency in brain delivery compared with other compounds including Ang peptide ([2]; 30 minutes after injection, 25 nmol/mouse i.v.): superior efficiency than other compounds
- solubility [3]: > 496 mg/mL
- TRBP-6 amount remains (%) in PBS pH 7.4 ([4]; 0 h): 100.0 ± 2.4%
- TRBP-6 amount remains (%) in PBS pH 7.4 ([4]; 1 h): 98.9 ± 6.5%
- TRBP-6 amount remains (%) in PBS pH 7.4 ([4]; 3 h): 95.5 ± 3.3%
- TRBP-6 amount remains (%) in PBS pH 7.4 ([4]; 6 h): 94.6 ± 2.3%
- TRBP-6 amount remains (%) in PBS pH 7.4 ([4]; 9 h): 92.7 ± 0.2%
- TRBP-6 amount remains (%) in PBS pH 7.4 ([4]; 24 h): 91.3 ± 3.8%
- TRBP-6 amount remains (%) in human plasma ([5]; 0 h, 1.4 mg/ml): 100.0 ± 1.2%
- stability (overall statement) ([5]; PBS pH 7.4 and human plasma, up to 24 h): excellent stability
- remaining at 1 h, 1.4 mg/ml ([5]; human, human plasma, 1 h, 1.4 mg/ml, read-out: TRBP-6 amount remains (%) in human plasma): 99.5 ± 3.5%
- remaining at 3 h, 1.4 mg/ml ([5]; human, human plasma, 3 h, 1.4 mg/ml, read-out: TRBP-6 amount remains (%) in human plasma): 94 ± 2.1%
- remaining at 6 h, 1.4 mg/ml ([5]; human, human plasma, 6 h, 1.4 mg/ml, read-out: TRBP-6 amount remains (%) in human plasma): 93 ± 5.3%
- remaining at 9 h, 1.4 mg/ml ([5]; human, human plasma, 9 h, 1.4 mg/ml, read-out: TRBP-6 amount remains (%) in human plasma): 92 ± 2.9%
- remaining at 24 h, 1.4 mg/ml ([5]; human, human plasma, 24 h, 1.4 mg/ml, read-out: TRBP-6 amount remains (%) in human plasma): 90.3 ± 4.7%
